For experiment [1] the following is noted: in mammals; reported; cited from earlier work.
Experiment [2] has as its system secretion of ACTH and β-endorphin. The conditions noted are these: reported; cited from earlier work.
The next experiment concerns gastric acid production. The conditions noted are these: in vivo; cited from earlier work.
Experiment [3] has as its system cultured rat pituitary cells. Briefly: secretion of ACTH and β-endorphin by cultured rat pituitary cells. The experiment is classed as cell-based.
In experiment [4] the test system is ACTH and β-END-LI secretion. The experiment is described as follows: ACTH and β-END-LI secretion in vivo in several rat preparations.
The nature of experiment [5]: blood pressure in the dog. The experiment is classed as in vivo.
Experiment [6] is described as follows: blood pressure in the rat. The experiment is classed as in vivo.
In a further experiment the test system is teleost fish pituitaries. The experiment is described as follows: secretion of ACTH by teleost fish pituitaries. The class given is cell-based.
Experiment [7] is described as follows: activity and learning performance after administration into the ventricles. The class given is in vivo. The conditions noted are these: rats, administered into the ventricles.
Another experiment concerns ACTH and β-endorphin. The experiment is described as follows: ACTH and β-endorphin activities in vitro and in vivo, general statement.
Experiment [8] in a line: lowering of blood pressure, general statement. The class given is in vivo. The conditions noted are these: for an extended time period.
Experiment [9] relates to pituitary-adrenalcortical axis. Briefly: stimulation of the pituitary-adrenalcortical axis and levels of pro-opiomelanocortin products. Conditions: in vivo.
Experiment [10] has as its system secretion of ACTH and β-END-LI. The experiment is described as follows: secretion of ACTH and β-END-LI, test system not specified.
The nature of experiment [11]: vasodilatory-hypotensive activity, lowering of systemic blood pressure. Conditions: for vasodilatory-hypotensive activity: called mammalian for Example III only; for systemic blood pressure: in vivo. The class given is in vivo.

Read-outs that look alike come from different tables or passages of the source. No end group written: not given here.

Turning to “oCRF: ovine corticotropin releasing factor, characterized in 1981, U.S. Patent No. 4,415,558 (H-SQEPPISLDLTFHLLREVLEMTKADQLAQQAHSNRKLLDIA-NH2; ends and bridges not checked; UniProt P01142 148-188, looked up)”, in experiment [1], the blood pressure result is reported as “lowering”. In [2], the “secretion of ACTH” value is “stimulating” and the “secretion of β-endorphin” value is reported as “stimulating”. Further, the gastric acid production result in the experiment with gastric acid production is “inhibits”.
For the substance Sauvagine, the blood pressure result in [1] is “lowering”. In experiment [2], the “secretion of ACTH” value is on record as “stimulating” and the “secretion of β-endorphin” value is given as “stimulating”.
On to “SEEPPISLDLTFHLLREVLEMARAEQLAQQAHSNRKMMEIF-NH2 [Example I]”, for which, in experiment [3], the “secretion of ACTH” value is “stimulates” and the “secretion of β-endorphin” value is reported as “stimulates”. Besides, in experiment [4], the ACTH secretion entry is “stimulates” and the β-END-LI secretion result was “stimulates”. Also, the blood pressure entry in [5] is listed as “sustained depression”. Besides, the blood pressure result in experiment [6] was “marked fall”. Moreover, in the experiment with teleost fish pituitaries, the “secretion of ACTH” value is reported as “stimulates”. For the same substance, in experiment [7], the activity entry is listed as “increases” and the learning performance result is given as “improves”. In the experiment on ACTH and β-endorphin, the ACTH activies entry is listed as “stimulates” and the β-endorphin activies entry is given as “stimulates”. Also, the blood pressure result in [8] is reported as “substantially lowers”. In [9], the “levels of ACTH, β-END, β-lipotropin, other pro-opiomelanocortin gene products and corticosterone” value was “elevates”; the pituitary-adrenalcortical axis entry is listed as “profoundly stimulates”.
In the case of “PPISLDLTFHLLREVLEMARAEQLAQQAHSNRKMMEIF-NH2 [III]”, the “secretion of ACTH” value in [10] is “stimulates”. Also, in experiment [11], the vasodilatory-hypotensive activity entry is reported as “significant” and the systemic blood pressure entry is reported as “lowering”.
Turning to “Ac-SEEPPISLDLTFHLLREVLEMARAEQLAQQAHSNRKMMEIF-NH2 [II]”, in experiment [10], the “secretion of ACTH” value was “stimulates” and the “secretion of β-END-LI” value is recorded as “stimulates”. Also, in [11], the vasodilatory-hypotensive activity entry is listed as “causes vasodilatory-hypotensive activity” and the systemic blood pressure entry is on record as “lowering”.

Values taken from patent publication EP0369664B1, “Fish CRF” (THE SALK INSTITUTE FOR BIOLOGICAL STUDIES, priority 1988, dated 1994).
